Data set [1] relates to hepatocytes.
Data set [2] deals with hepatocytes. The source holds these as a separate data set.
Data set [3] relates to hepatocytes. Kind of data set: qRT-PCR validation of the Example 12 RNA-seq results.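 Also: Compound-treated versus DMSO control, target Ct normalized to GAPDH or β-actin reference (ΔΔCt method), positive values mean higher expression than DMSO.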
In data set [4] the test system is hepatocytes. In words: RNA-seq of hepatocytes stimulated with the compounds of Table 68. As to conditions: hepatocytes, RNA-seq.
The test system of data set [5] is primary human hepatocytes. Kind of data set: RNA-seq of primary human hepatocytes treated with 39 small molecules (pilot and validation). As to conditions: for Number (#) of genes having significantly changed expression: pilot RNA-seq study of Example 2, significance: FPKM≥0.5, log 2(fold change)≥1, q-value ≤0.05.
In a further data set the test system is COL1A1 gene. In words: RNA-seq gene expression after compound treatment, COL1A1. Format: cell-based, human. Conditions: FIG. 11B; gene implicated in liver fibrosis. From the text:
FIG. 11B are ChIP-seq results for an insulated neighborhood and RNA-seq results showing modulation of the COL1A1 gene implicated in liver fibrosis by BIO inhibitor (MT-209), a Wnt pathway agonist.
(§1) In certain embodiments, hepatocytes are used to map a healthy cell population. The liver is a source of many known genetic disease and provides homogeneous primary tissue with high availability. Additionally, most toxicology is done in the liver, which provides drug toxicity insights. In some embodiments, different stimuli, such as those described herein, are contacted with a cell to induce various GSC responses in the hepatocytes. For example, small molecules may be administered to identify liver disease genes whose expression is modulated by the small molecules. These responses provide an understanding of GSCs in liver cells: genomic positions, protein composition, and genome architecture. Alternatively, blood or muscle tissue may be mapped as a healthy population, as a disease model, or as primary disease cells. About 20 million cells are generally needed for accurate ChIP (chromatin immunoprecipitation) analysis. Therefore, in some embodiments, erythroid cells may be used to develop a conditionally immortalized cell system to produce a sufficient biomass for ChIP analysis of a cell with a disease phenotype.

The next data set has as its system SLC37A4 gene. Kind of data set: RNA-seq gene expression after compound treatment, insulated neighborhood containing SLC37A4. As to conditions: FIG. 8; gene implicated in glycogen storage disease 1b. Format: cell-based, human.
A further data set deals with FKBP5. In words: RNA-seq gene expression after compound treatment, insulated neighborhood including FKBP5. Format: cell-based, human. As to conditions: FIG. 11A; gene implicated in immunosuppression.
Excerpt: as §1

The test system of a further data set is PCSK9 gene. Kind of data set: RNA-seq gene expression after compound treatment, PCSK9. As to conditions: FIG. 11C and FIG. 13; gene implicated in hypercholesterolemia. Format: cell-based, human.
Excerpt: as §1

Entries after “also recorded” stand apart in the source; their conditions may differ.

Take `CO[C@H]1/C=C/O[C@@]2(C)Oc3c(C)c(O)c4c(O)c(c(/C=N/N5CCN(C)CC5)c(O)c4c3C2=O)NC(=O)/C(C)=C\C=C\[C@H](C)[C@H](O)[C@@H](C)[C@@H](O)[C@@H](C)[C@H](OC(C)=O)[C@@H]1C` [MT-901, Rifampicin]: the “DESeq log2fc, CYP7A1” value with hepatocytes [1] is listed as −1.44. Moreover, the “qRT-PCR log2fc, CYP2C19” value in the data set with hepatocytes [2] was −0.37. Besides, the “qRT-PCR log2fc, AGTR1” value in the data set with hepatocytes [3] (log 2 fold change in AGTR1 gene expression) was −0.37. Moreover, the “qRT-PCR log2fc, ALAS1” value in the data set with hepatocytes [3] (log 2 fold change in ALAS1 gene expression) worked out at 0.3. In addition, in the data set with hepatocytes [3] (log 2 fold change in CA12 gene expression), the “qRT-PCR log2fc, CA12” value is listed as 0.53. Also, the “qRT-PCR log2fc, ENO3” value in the data set on hepatocytes [3] (log 2 fold change in ENO3 gene expression) is −0.06. Moreover, in the data set on hepatocytes [3] (log 2 fold change in POR gene expression), the “qRT-PCR log2fc, POR” value is recorded as 0.16. In the data set with hepatocytes [3] (log 2 fold change in SLC6A6 gene expression), the “qRT-PCR log2fc, SLC6A6” value is given as −0.14. Besides, in the data set on hepatocytes [3] (log 2 fold change in SLC6A20 gene expression), the “qRT-PCR log2fc, SLC6A20” value is −0.17. Besides, the “qRT-PCR log2fc, SLC51B” value in the data set with hepatocytes [3] (log 2 fold change in SLC51B gene expression) is on record as 1.72. The “qRT-PCR log2fc, VLDLR” value with hepatocytes [3] (log 2 fold change in VLDLR gene expression) was 0.63. Also, the “Cuffdiff log2fc, AGTR1” value with hepatocytes [4] (log 2 fold change in AGTR1 gene expression, Cuffdiff) was 1.1. For the same compound, the “DESeq log2fc, AGTR1” value with hepatocytes [4] (log 2 fold change in AGTR1 gene expression, DESeq) amounted to 1.18. Besides, the “Cuffdiff log2fc, ALAS1” value in the data set with hepatocytes [4] (log 2 fold change in ALAS1 gene expression, Cuffdiff) is 1.45. The “DESeq log2fc, ALAS1” value in the data set on hepatocytes [4] (log 2 fold change in ALAS1 gene expression, DESeq) is given as 1.47. In the data set with hepatocytes [4] (log 2 fold change in CA12 gene expression, Cuffdiff), the “Cuffdiff log2fc, CA12” value was 1.53. The “DESeq log2fc, CA12” value in the data set on hepatocytes [4] (log 2 fold change in CA12 gene expression, DESeq) amounted to 1.56. The “DESeq log2fc, CYP2C19” value in the data set with hepatocytes [4] (log 2 fold change in CYP2C19 gene expression, DESeq) is recorded as 2.3. In addition, the “Cuffdiff log2fc, ENO3” value with hepatocytes [4] (log 2 fold change in ENO3 gene expression, Cuffdiff) was −1.13. The “DESeq log2fc, ENO3” value in the data set with hepatocytes [4] (log 2 fold change in ENO3 gene expression, DESeq) is −0.97. Further, the “Cuffdiff log2fc, POR” value in the data set with hepatocytes [4] (log 2 fold change in POR gene expression, Cuffdiff) was determined as 1.13. The “DESeq log2fc, POR” value with hepatocytes [4] (log 2 fold change in POR gene expression, DESeq) came to 1.17. The “Cuffdiff log2fc, SLC6A6” value with hepatocytes [4] (log 2 fold change in SLC6A6 gene expression, Cuffdiff) is 1.28. In addition, the “DESeq log2fc, SLC6A6” value in the data set with hepatocytes [4] (log 2 fold change in SLC6A6 gene expression, DESeq) is 1.39. For the same compound, in the data set on hepatocytes [4] (log 2 fold change in SLC6A20 gene expression, Cuffdiff), the “Cuffdiff log2fc, SLC6A20” value turned out to be 1.03. Further, the “DESeq log2fc, SLC6A20” value in the data set with hepatocytes [4] (log 2 fold change in SLC6A20 gene expression, DESeq) was 1.06. In the data set with hepatocytes [4] (log 2 fold change in SLC51B gene expression, Cuffdiff), the “Cuffdiff log2fc, SLC51B” value worked out at 1.02. The “DESeq log2fc, SLC51B” value in the data set with hepatocytes [4] (log 2 fold change in SLC51B gene expression, DESeq) came to 1.19. Besides, in the data set with hepatocytes [4] (log 2 fold change in VLDLR gene expression, Cuffdiff), the “Cuffdiff log2fc, VLDLR” value came out at 1.69. For the same compound, the “DESeq log2fc, VLDLR” value in the data set with hepatocytes [4] (log 2 fold change in VLDLR gene expression, DESeq) was found to be 1.71. Also, in data set [5], the “Number (#) of genes having significantly changed expression” value was 90.

For `O=C1Nc2cc(Br)ccc2/C1=C1/Nc2ccccc2/C1=N\O` [BIO inhibitor], in the data set with COL1A1 gene, the “expression of the COL1A1 gene (RNA-seq)” value is recorded as “modulation”.

Take `C[C@]12C=CC(=O)C=C1CC[C@@H]1[C@@H]2C(=O)C[C@@]2(C)[C@H]1CC[C@]2(O)C(=O)CO` [prednisone]: in the data set on SLC37A4 gene, the “expression of the SLC37A4 gene (RNA-seq)” value is on record as “upregulation”. In the data set with FKBP5, the “expression of FKBP5 (RNA-seq)” value is “upregulates”. The “expression of the PCSK9 gene (RNA-seq)” value in the data set with PCSK9 gene was “modulation”. Moreover, the “significant modulation of gene expression” value in data set [5] (RNA-seq, p-value≤0.05, primary human hepatocytes, the modulated genes are listed in the block) is on record as “significantly (p-value≤0.05) modulate”. Besides, in [5] (RNA-seq, treated cells compared to vehicle control, gene named in the value), the “gene upregulated by the compound” value is recorded as “upregulate the SLC37A4 gene; also recorded: SLC37A4 was significantly upregulated; also recorded: upregulate FKPP5”. The “Number (#) of genes having significantly changed expression” value in [5] is listed as 247.

Values taken from patent US20210254056A1, “IDENTIFICATION AND TARGETED MODULATION OF GENE SIGNALING NETWORKS” (CAMP4 THERAPEUTICS CORPORATION, priority 2017, published 2021).
